Measured values reported in PMC9841524, “Structure-Based Rational Design of Small α-Helical Peptides with Broad-Spectrum Activity against Multidrug-Resistant Pathogens” (Journal of Medicinal Chemistry, 2022).
Where no end group is shown, it is not given here.

Tested on: P. aeruginosa (ATCC 27883)
Experiment: MIC, standard microtiter dilution (CLSI)
Format: cell-based, Pseudomonas aeruginosa
Conditions: broth microdilution (CLSI), CAMHB, 10^6 CFU/mL, 37 °C, 24 h; highest MIC of three independent experiments in triplicate
Outline: (§1)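 Broth microdilution per CLSI: overnight cultures diluted in cation-adjusted Mueller Hinton Broth to 10^6 CFU/mL, mixed with 2-fold serial peptide dilutions, incubated 37 °C for 24 h. MIC = lowest peptide concentration inhibiting growth. Three independent assays in triplicate.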

| Substance | MIC, P. aeruginosa (ATCC 27883) [µg/mL] |
| --- | --- |
| Ac-RWIRRWIRWWRR-NH2 [7c] | 6.2 |
| Ac-RWLRRWLRWWRR-NH2 [8c] | 12.5 |
| KWAKKWAKWWKK-NH2 [6b] | > 100 |

Same assay, conditions: value in parentheses (μM); broth microdilution (CLSI), CAMHB, 37 °C, 24 h

| Substance | MIC, P. aeruginosa (ATCC 27883) [µM] |
| --- | --- |
| Ac-RWIRRWIRWWRR-NH2 [7c] | 3.15 |
| Ac-RWLRRWLRWWRR-NH2 [8c] | 6.35 |
| KWAKKWAKWWKK-NH2 [6b] | > 59.77 |

Tested on: not listed separately
Experiment: Relative hydrophobicity as RP-HPLC retention time
Format: physicochemical
Conditions: chromatographic, Phenomenex Luna C18 4 μm 150 × 4.6 mm, linear AB gradient 1% acetonitrile/min, 0.3 mL/min, A water 0.1% TFA, B acetonitrile 0.1% TFA, 25 °C
Procedure: The purity analysis of the peptides was conducted on a RP-HPLC system (Shimadzu; LC-20ADXR) by using a Phenomenex (Luna) analytical C18 column (4 μm, 150 × 4.6 mm). The mass of the purified peptides was determined in the positive-ion mode using Q-TOF LC/MS (Compass Hystar 4.1, Bruker, USA). The purity (>95%) and mass data of all the synthesized peptides are provided in the Supporting Information.
8. Comparative Hydrophobicity analysis
The purity of all synthesized peptides was determined using reverse phase analytical HPLC
(Shimadzu; LC-20ADXR). Below mentioned are the conditions used to conduct the purity
Column: Phenomenex (Luna), 4 um, C18, 150 × 4.6 mm
Mobile Phase: Buffer A-Water containing 0.1% TFA,
Buffer B-Acetonitrile containing 0.1% TFA
Figure S52. HPLC chromatogram of 6a.
(1 picture or pasted object on this page, not shown here)

| Substance | tR, RP-HPLC retention time (measure of overall hydrophobicity) [min] |
| --- | --- |
| Ac-RWIRRWIRWWRR-NH2 [7c] | 40.63 |
| Ac-RWLRRWLRWWRR-NH2 [8c] | 41.20 |
| KWAKKWAKWWKK-NH2 [6b] | 28.98 |

Tested on: not listed separately
Experiment: CD spectroscopy, helicity;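 for % of helicity induced by Liposomes: share of the total helicity with liposomes gained over the same peptide in PBS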;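 for % of helicity induced by TFE: share of the total helicity in TFE gained over the same peptide in PBS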
Format: physicochemical
Set-up: key to Δ[θ]222 induced by TFE / Δ[θ]222 induced by Liposomes: mean residue molar ellipticity, mdeg cm2/(dmol × res)
Conditions: CD at 222 nm, 25 °C, aqueous buffer containing 50% TFE
Procedure: The CD spectra of peptides were recorded using a Jasco J-1500 CD spectrophotometer (Jasco, Easton, MD) at 25 °C with a 1 mm path length cell. Wavelengths from 190 to 260 nm were scanned with 1.0 nm step resolution, 100 nm/min speed, 0.4 s response time, and 1 nm bandwidth. CD spectra of the peptides were collected and averaged over three scans in 10 mM sodium phosphate buffer (pH 7.2), helix-inducing solvent 50% TFE (v/v), and bacterial mimic liposomes (75 μM lipid). Spectra were corrected by subtracting a baseline spectrum containing only buffer or 50% TFE or liposomes. The mean residue molar ellipticity was calculated using the formula [drawing 3] where Ab222 is the absorbance observed at 222 nm, MRW is the mean residue molecular weight, C is the concentration in mg/mL, and L is the path length.
Table S1. RP-HPLC retention times and CD spectroscopy analysis of the selected peptides Peptide tR (min)a [θ]222b Δ[θ]222 induced by % of helicity inducedc by PBS TFE Liposomes TFE Liposomes TFE Liposomes […]
atR (min) denotes the retention time at 25°C by RP-HPLC. bThe mean residue molar ellipticity [θ] 222 (mdeg cm2/(dmol × res)) at 222 nm was measured at 25 °C in phosphate buffer saline (PBS, pH 7.0), in aqueous buﬀer containing 50% TFE (TFE), or in presence of bacterial membrane mimicking liposomes (peptide:lipid […]
c% helix induced is the increase in the molar ellipticity at 222 nm (in percentage) of a peptide in the presence of TFE or liposomes.

| Substance | [θ]222 mean residue molar ellipticity, TFE |
| --- | --- |
| Ac-RWIRRWIRWWRR-NH2 [7c] | -10279 mdeg cm2/(dmol × res) |
| Ac-RWLRRWLRWWRR-NH2 [8c] | -13735 mdeg cm2/(dmol × res) |
| KWAKKWAKWWKK-NH2 [6b] | -14689 mdeg cm2/(dmol × res) |

Same assay, conditions: CD at 222 nm, 25 °C, bacterial membrane mimicking liposomes, peptide:lipid molar ratio 1:1.05

| Substance | [θ]222 mean residue molar ellipticity, Liposomes |
| --- | --- |
| Ac-RWIRRWIRWWRR-NH2 [7c] | -19297 mdeg cm2/(dmol × res) |
| Ac-RWLRRWLRWWRR-NH2 [8c] | -19930 mdeg cm2/(dmol × res) |
| KWAKKWAKWWKK-NH2 [6b] | -20391 mdeg cm2/(dmol × res) |

Same assay, conditions: CD at 222 nm, 25 °C, phosphate buffer saline pH 7.0

| Substance | [θ]222 mean residue molar ellipticity, PBS |
| --- | --- |
| Ac-RWIRRWIRWWRR-NH2 [7c] | -3192 mdeg cm2/(dmol × res) |
| Ac-RWLRRWLRWWRR-NH2 [8c] | -8173 mdeg cm2/(dmol × res) |
| KWAKKWAKWWKK-NH2 [6b] | -7476 mdeg cm2/(dmol × res) |

Same assay, conditions: difference to PBS; 50% TFE

| Substance | Δ[θ]222 induced by TFE |
| --- | --- |
| Ac-RWIRRWIRWWRR-NH2 [7c] | -7087 |
| Ac-RWLRRWLRWWRR-NH2 [8c] | -5562 |
| KWAKKWAKWWKK-NH2 [6b] | -7212 |

Same assay, conditions: difference to PBS; bacterial membrane mimicking liposomes

| Substance | Δ[θ]222 induced by Liposomes |
| --- | --- |
| Ac-RWIRRWIRWWRR-NH2 [7c] | -16105 |
| Ac-RWLRRWLRWWRR-NH2 [8c] | -11757 |
| KWAKKWAKWWKK-NH2 [6b] | -12915 |

Same assay, conditions: increase in molar ellipticity at 222 nm in the presence of 50% TFE

| Substance | % of helicity induced by TFE [%] |
| --- | --- |
| Ac-RWIRRWIRWWRR-NH2 [7c] | 68.94 |
| Ac-RWLRRWLRWWRR-NH2 [8c] | 40.49 |
| KWAKKWAKWWKK-NH2 [6b] | 49.10 |

Same assay, conditions: increase in molar ellipticity at 222 nm in the presence of liposomes

| Substance | % of helicity induced by Liposomes [%] |
| --- | --- |
| Ac-RWIRRWIRWWRR-NH2 [7c] | 83.45 |
| Ac-RWLRRWLRWWRR-NH2 [8c] | 58.99 |
| KWAKKWAKWWKK-NH2 [6b] | 63.33 |

Tested on: MRSA (ATCC BAA-1556)
Experiment: not given
Conditions: broth microdilution (CLSI), CAMHB, 10^6 CFU/mL, 37 °C, 24 h; highest MIC of three independent experiments in triplicate
Outline: as §1

| Substance | MIC, MRSA (ATCC BAA-1556) [µg/mL] |
| --- | --- |
| Ac-RWIRRWIRWWRR-NH2 [7c] | 6.2 |
| Ac-RWLRRWLRWWRR-NH2 [8c] | 6.2 |
| KWAKKWAKWWKK-NH2 [6b] | 100 |

Same assay, conditions: value in parentheses (μM); broth microdilution (CLSI), CAMHB, 37 °C, 24 h

| Substance | MIC, MRSA (ATCC BAA-1556) [µM] |
| --- | --- |
| Ac-RWIRRWIRWWRR-NH2 [7c] | 3.15 |
| Ac-RWLRRWLRWWRR-NH2 [8c] | 3.15 |
| KWAKKWAKWWKK-NH2 [6b] | 59.77 |

Tested on: E. coli (ATCC 25922)
Experiment: not given
Conditions: broth microdilution (CLSI), CAMHB, 10^6 CFU/mL, 37 °C, 24 h; highest MIC of three independent experiments in triplicate
Outline: as §1

| Substance | MIC, E. coli (ATCC 25922) [µg/mL] |
| --- | --- |
| Ac-RWIRRWIRWWRR-NH2 [7c] | 12.5 |
| Ac-RWLRRWLRWWRR-NH2 [8c] | 12.5 |
| KWAKKWAKWWKK-NH2 [6b] | > 100 |

Same assay, conditions: value in parentheses (μM); broth microdilution (CLSI), CAMHB, 37 °C, 24 h

| Substance | MIC, E. coli (ATCC 25922) [µM] |
| --- | --- |
| Ac-RWIRRWIRWWRR-NH2 [7c] | 6.35 |
| Ac-RWLRRWLRWWRR-NH2 [8c] | 6.35 |
| KWAKKWAKWWKK-NH2 [6b] | > 59.77 |

Tested on: S. aureus (ATCC 29213)
Experiment: MIC, standard microtiter dilution (CLSI)
Format: cell-based
Conditions: broth microdilution (CLSI), CAMHB, 10^6 CFU/mL, 37 °C, 24 h; highest MIC of three independent experiments in triplicate
Outline: as §1

| Substance | MIC, S. aureus (ATCC 29213) [µg/mL] |
| --- | --- |
| Ac-RWIRRWIRWWRR-NH2 [7c] | 6.2 |
| Ac-RWLRRWLRWWRR-NH2 [8c] | 6.2 |
| KWAKKWAKWWKK-NH2 [6b] | 100 |

Same assay, conditions: value in parentheses (μM); broth microdilution (CLSI), CAMHB, 37 °C, 24 h

| Substance | MIC, S. aureus (ATCC 29213) [µM] |
| --- | --- |
| Ac-RWIRRWIRWWRR-NH2 [7c] | 3.15 |
| Ac-RWLRRWLRWWRR-NH2 [8c] | 3.15 |
| KWAKKWAKWWKK-NH2 [6b] | 59.77 |

Tested on: human red blood cells (hRBCs)
Experiment: Hemolytic assay
Format: cell-based
Conditions: hRBC suspension 4% in PBS, 2 h, 37 °C, hemoglobin release at 567 nm; 1% Triton X-100 = 100%
Outline: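 Percent hemolysis uses PBS as 0% and 1% Triton X-100 as 100% references, from supernatant absorbance at 567 nm. Red cells (4% in PBS, equal volume) exposed 2 h at 37 °C without agitation to 2-fold serially diluted peptide.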

| Substance | HC50 (concentration at which 50% hemolysis was observed) [µg/mL] |
| --- | --- |
| Ac-RWIRRWIRWWRR-NH2 [7c] | 40 |
| Ac-RWLRRWLRWWRR-NH2 [8c] | 30 |
| KWAKKWAKWWKK-NH2 [6b] | > 500 |

Same assay, conditions: value in parentheses (μM); hRBC 4% in PBS, 2 h, 37 °C, 567 nm

| Substance | HC50 (concentration at which 50% hemolysis was observed) [µM] |
| --- | --- |
| Ac-RWIRRWIRWWRR-NH2 [7c] | 20.33 |
| Ac-RWLRRWLRWWRR-NH2 [8c] | 15.25 |
| KWAKKWAKWWKK-NH2 [6b] | > 298.85 |

Tested on: K. pneumoniae (ATCCBAA-1705)
Experiment: MIC, standard microtiter dilution (CLSI)
Format: cell-based, Klebsiella pneumoniae
Conditions: broth microdilution (CLSI), CAMHB, 10^6 CFU/mL, 37 °C, 24 h; highest MIC of three independent experiments in triplicate
Outline: as §1

| Substance | MIC, K. pneumoniae (ATCCBAA-1705) [µg/mL] |
| --- | --- |
| Ac-RWIRRWIRWWRR-NH2 [7c] | 25 |
| Ac-RWLRRWLRWWRR-NH2 [8c] | 12.5 |
| KWAKKWAKWWKK-NH2 [6b] | > 100 |

Same assay, conditions: value in parentheses (μM); broth microdilution (CLSI), CAMHB, 37 °C, 24 h

| Substance | MIC, K. pneumoniae (ATCCBAA-1705) [µM] |
| --- | --- |
| Ac-RWIRRWIRWWRR-NH2 [7c] | 12.70 |
| Ac-RWLRRWLRWWRR-NH2 [8c] | 6.35 |
| KWAKKWAKWWKK-NH2 [6b] | > 59.77 |
